Measured values published in publication PMC8789054, “The nucleotide messenger (p)ppGpp is an anti-inducer of the purine synthesis transcription regulator PurR in Bacillus” (Nucleic Acids Research, 2021).

Legend:
[1] = target: T1, PurR Y102A/F205A (Bacillus subtilis, UniProt P37551, Y102A/F205A); assay: inhibition of PurR-DNA probe binding by PRPP (Supplementary Figure S15); assay type: biochemical
T1 sequence (P37551 1-285 Y102A/F205A): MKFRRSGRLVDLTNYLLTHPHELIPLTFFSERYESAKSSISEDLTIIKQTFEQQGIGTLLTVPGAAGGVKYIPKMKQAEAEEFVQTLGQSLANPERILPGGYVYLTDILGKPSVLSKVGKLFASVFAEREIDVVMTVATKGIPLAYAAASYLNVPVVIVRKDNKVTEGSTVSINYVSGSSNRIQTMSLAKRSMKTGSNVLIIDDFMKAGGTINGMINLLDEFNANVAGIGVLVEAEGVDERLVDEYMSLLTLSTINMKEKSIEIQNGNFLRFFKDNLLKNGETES

[2] = target: T2, PurR Y102A/K207A (Bacillus subtilis, UniProt P37551, Y102A/K207A); assay: as above; assay type: biochemical
T2 sequence (P37551 1-285 Y102A/K207A): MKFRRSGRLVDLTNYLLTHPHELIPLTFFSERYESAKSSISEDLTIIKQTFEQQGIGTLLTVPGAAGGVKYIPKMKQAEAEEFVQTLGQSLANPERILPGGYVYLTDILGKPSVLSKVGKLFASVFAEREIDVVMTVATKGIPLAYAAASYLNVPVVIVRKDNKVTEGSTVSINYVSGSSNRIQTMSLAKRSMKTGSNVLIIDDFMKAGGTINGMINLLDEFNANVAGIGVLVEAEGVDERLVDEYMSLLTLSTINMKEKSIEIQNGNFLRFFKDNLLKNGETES

[3] = target: T3, PurR (Bacillus subtilis, UniProt P37551); assay: X-ray co-crystal structure ([…] Å); DRaCALA with […]-ppGpp; assay type: binding
T3 construct: untagged B. subtilis PurR

[4] = target: T3, PurR; assay: DRaCALA with […]-pppGpp; assay type: binding
[5] = target: the molecule itself; assay: crystal structure; untagged PurR at 20 mg/ml with 1 mM ppGpp, hanging drop vapor diffusion, 0.1 M MES pH 6.5, 18% PEG 1500, room temperature; space group P1, three PurR dimers in the asymmetric unit; 2.45 Å

With `O=P(O)(O)OC[C@H]1O[C@H](OP(=O)(O)OP(=O)(O)O)[C@H](O)[C@@H]1O` [PRPP] the “inhibition of PurR-DNA probe binding by PRPP (Supplementary Figure S15)” value [1] was “yet still bind to DNA probes and their binding to DNA is still inhibited by PRPP” and the “inhibition of PurR-DNA probe binding by PRPP (Supplementary Figure S15)” value [2] was “yet still bind to DNA probes and their binding to DNA is still inhibited by PRPP”.

With `Nc1nc2c(ncn2[C@@H]2O[C@H](COP(=O)(O)OP(=O)(O)O)[C@@H](OP(=O)(O)OP(=O)(O)O)[C@H]2O)c(=O)[nH]1` [ppGpp] the Kd [3] was ~4.4 µM.

Molecule `Nc1nc2c(ncn2[C@@H]2O[C@H](COP(=O)(O)OP(=O)(O)OP(=O)(O)O)[C@@H](OP(=O)(O)OP(=O)(O)O)[C@H]2O)c(=O)[nH]1` [pppGpp] has a Kd [4] of ~4.4 µM.

B1: Bacillus subtilis purine synthesis transcription regulator PurR (untagged) (natural protein, B. subtilis)
chain: MKFRRSGRLVDLTNYLLTHPHELIPLTFFSERYESAKSSISEDLTIIKQTFEQQGIGTLLTVPGAAGGVKYIPKMKQAEAEEFVQTLGQSLANPERILPGGYVYLTDILGKPSVLSKVGKLFASVFAEREIDVVMTVATKGIPLAYAAASYLNVPVVIVRKDNKVTEGSTVSINYVSGSSNRIQTMSLAKRSMKTGSNVLIIDDFMKAGGTINGMINLLDEFNANVAGIGVLVEAEGVDERLVDEYMSLLTLSTINMKEKSIEIQNGNFLRFFKDNLLKNGETES
notes: PurR, purine synthesis transcription regulator of Bacillus subtilis; Crystallised with 1 mM ppGpp; three dimers in the asymmetric unit; also called B. subtilis PurR; purine repressor PurR; source: E. coli BL21 T7 Express lacIq, purified (HisTrap FF, TEV cleavage, second HisTrap FF, Sephacryl S-200 gel filtration)
B1: binds [5].
